Test in all cases: Pan-caspase detection (FAM-VAD-FMK, confocal)
Common to all, as to assay type: cell-based, human

Assay [1] concerns PC3. The following applies: PC3, 24 h DEFB1 induction. As to the method: (§1) Detection of caspase activity in the prostate cancer cell lines was performed using APO LOGIX™ Carboxyfluorescin Caspase detection kit (Cell Technology, Mountain View, Calif.). Active caspases were detected through the use of a FAM-VAD-FMK inhibitor that irreversibly binds to active caspases. Briefly, DU 145 and PC3 cells (1.5-3×10^5) containing the DEFB1 expression system were plated in 35 mm glass bottom microwell dishes (Matek, Ashland, Mass.) and treated for 24 hours with media only or with media containing PonA as previously described. Next, 10 μl of a 30× working dilution of carboxyfluorescein labeled peptide fluoromethyl ketone (FAM-VAD-FMK) was added to 300 μl of media and added to each 35 mm dish. Cells were then incubated for 1 hour at 37° C. under 5% CO2. […] The fluorescent signal was analyzed using a confocal microscope (Zeiss LSM 5 Pascal) and a 63×DIC oil lens with a Vario 2 RGB Laser Scanning Module.
(§2) Pan-Caspase Detection: Detection of caspase activity in the prostate cancer cell lines was performed using APO LOGIX™ Carboxyfluorescin Caspase detection kit (Cell Technology, Mountain View, Calif.). Active caspases were detected through the use of a FAM-VAD-FMK inhibitor that irreversibly binds to active caspases. […] The fluorescent signal was analyzed using a confocal microscope (Zeiss LSM 5 Pascal) and a 63×DIC oil lens with a Vario 2 RGB Laser Scanning Module. […]

The subject of assay [2] is LNCaP. The following applies: 24 h DEFB1 (hBD-1) induction.
In assay [3] the test system is DU145. The following applies: DU145, 24 h DEFB1 (hBD-1) induction. As for the experimental part: as §1, §2

“Also recorded” adds a separate entry of the source.

Regarding “DEFB1: human beta defensin-1 expressed from the ecdysone inducible pIND/DEFB1 construct, induced with Ponasterone A (DHYNCVSSGGQCLYSACPIFTKIQGTCYRGKAKCCK; UniProt P60022 33-68, looked up)”, the caspase activity entry is given as “revealed caspase activity; also recorded: green staining” in assay [1]; “No caspase activity was detected; also recorded: no green staining” in assay [2]; “no green staining” in assay [2] (listed as hBD-1); “revealed caspase activity; also recorded: green staining” in assay [3]; “green staining” in assay [3] (listed as hBD-1).

The values are drawn from patent publication US8445444B2, “Compositions and methods for diagnosing, treating, and preventing prostate conditions” (Phigenix, Inc., priority 2007, dated 2013).
